The numbers were not newly measured in US20180064655A1, “Hydroxynorketamine Transdermal Patch” (priority 2016, published 2018), which cites them from elsewhere.

For data set [1] the following is noted: in vivo.
The conditions of data set [2]: metabolite of ketamine.
The conditions of data set [3]: in vivo. This is another data set of the same source.
The mark [4] stands for this setting: following a single administration.

Turning to `N[C@@]1(c2ccccc2Cl)CCC[C@@H](O)C1=O` [(2R,6R)-HNK, (2R,6R)-hydroxynorketamine], the ketamine-related side-effects entry in data set [1] is given as “lacks ketamine-related side-effects”. Further, the antidepressant effect result in data set [2] is on record as “responsible for the antidepressant effect observed with ketamine treatment”.

Take `CNC1(c2ccccc2Cl)CCCCC1=O` (stereo not drawn) [Ketamine]: the “side effects limiting clinical use” value in data set [3] was “abuse potential and sensory-dissociation side effects”. Also, under setting [4], the “onset of antidepressant effects” value is “within hours” and the “persistence of antidepressant effects” value was “approximately one”. The “efficacy as an antidepressant” value (in vivo) was “rapid and robust efficacy as an antidepressant”.
